This is an account of results in patent publication US11306096B2, “4,6 dihydropyrrolo [3,4-C] pyrazole-5 (1H)-carbonitrile derivates for treating cancer” (MISSION THERAPEUTICS LIMITED, priority 2016, dated 2022).

In this experiment the target is USP7 (Homo sapiens (Human), UniProt Q93009). Kind of experiment: USP7 Biochemical IC50 Assay. Conditions: FLAG-USP7; enzyme and compound incubated 30 min at room temp; TAMRA labelled peptide-ubiquitin fluorescence polarisation substrate; read after 2 hr; read-out: IC50 range. As to the method:
The USP7 construct was PCR amplified and cloned into a pFLAG-CMV-6a vector (Sigma-Aldrich) with an N-terminal FLAG tag. HEK293T cells were transfected with FLAG-USP7 using TransIT-LT1 transfection reagent (Mirus) according to the manufacturer's instructions. Cells were harvested 40 hours after transfection. […] The resin was washed two times with low salt buffer plus protease inhibitors (complete mini, Roche) and phosphatase inhibitors (PhosSTOP mini, Roche) and one time with high salt buffer (20 mM Tris, pH 7.5, 500 mM NaCl, 0.5 mM EDTA, 5 mM beta-mercaptoethanol, protease inhibitors (complete mini, Roche) and phosphatase inhibitors (PhosSTOP mini, Roche). To elute the bound USP7, elution buffer (10 mM Tris, pH 7.5, 150 mM NaCl, 0.5 mM EDTA, 10% glycerol, 0.5% NP40, 5 mM beta-mercaptoethanol, 0.15 mg/ml 3×FLAG peptide (Sigma-Aldrich)) was added to the resin and incubated at 4° C. for 2.5 hours rotating. The resin was centrifuged at 4000 rpm for 30 seconds, and the supernatant containing purified FLAG-USP7 was removed and stored at −80° C.
USP7 Biochemical IC50 Assay
A typical 8-point dilution series would be 100, 30, 10, 3, 1, 0.3, 0.1, 0.03 μM final. […] Either 1 μl of 50% DMSO or diluted compound was added to the plate. USP7 was diluted in reaction buffer (20 mM Tris, pH 7.5, 100 mM NaCl, 0.05% Tween 20, 0.5 mg/ml BSA, 5 mM—beta mercaptoethanol) to the equivalent of 0.0025 μl/well and 10 μl of diluted USP7 was added to the compound. Enzyme and compound were incubated for 30 min at room temp. Reactions were initiated by the addition of 50 nM of TAMRA labelled peptide linked to ubiquitin via an iso-peptide bond as fluorescence polarisation substrate. Reactions were read immediately after addition of substrate and following a 2 hr incubation at room temperature. Readings were performed on a Pherastar Plus (BMG Labtech). λ Excitation 540 nm; λ Emission 590 nm.

Structures are written as SMILES.

Chain of USP7 (Q93009 whole entry): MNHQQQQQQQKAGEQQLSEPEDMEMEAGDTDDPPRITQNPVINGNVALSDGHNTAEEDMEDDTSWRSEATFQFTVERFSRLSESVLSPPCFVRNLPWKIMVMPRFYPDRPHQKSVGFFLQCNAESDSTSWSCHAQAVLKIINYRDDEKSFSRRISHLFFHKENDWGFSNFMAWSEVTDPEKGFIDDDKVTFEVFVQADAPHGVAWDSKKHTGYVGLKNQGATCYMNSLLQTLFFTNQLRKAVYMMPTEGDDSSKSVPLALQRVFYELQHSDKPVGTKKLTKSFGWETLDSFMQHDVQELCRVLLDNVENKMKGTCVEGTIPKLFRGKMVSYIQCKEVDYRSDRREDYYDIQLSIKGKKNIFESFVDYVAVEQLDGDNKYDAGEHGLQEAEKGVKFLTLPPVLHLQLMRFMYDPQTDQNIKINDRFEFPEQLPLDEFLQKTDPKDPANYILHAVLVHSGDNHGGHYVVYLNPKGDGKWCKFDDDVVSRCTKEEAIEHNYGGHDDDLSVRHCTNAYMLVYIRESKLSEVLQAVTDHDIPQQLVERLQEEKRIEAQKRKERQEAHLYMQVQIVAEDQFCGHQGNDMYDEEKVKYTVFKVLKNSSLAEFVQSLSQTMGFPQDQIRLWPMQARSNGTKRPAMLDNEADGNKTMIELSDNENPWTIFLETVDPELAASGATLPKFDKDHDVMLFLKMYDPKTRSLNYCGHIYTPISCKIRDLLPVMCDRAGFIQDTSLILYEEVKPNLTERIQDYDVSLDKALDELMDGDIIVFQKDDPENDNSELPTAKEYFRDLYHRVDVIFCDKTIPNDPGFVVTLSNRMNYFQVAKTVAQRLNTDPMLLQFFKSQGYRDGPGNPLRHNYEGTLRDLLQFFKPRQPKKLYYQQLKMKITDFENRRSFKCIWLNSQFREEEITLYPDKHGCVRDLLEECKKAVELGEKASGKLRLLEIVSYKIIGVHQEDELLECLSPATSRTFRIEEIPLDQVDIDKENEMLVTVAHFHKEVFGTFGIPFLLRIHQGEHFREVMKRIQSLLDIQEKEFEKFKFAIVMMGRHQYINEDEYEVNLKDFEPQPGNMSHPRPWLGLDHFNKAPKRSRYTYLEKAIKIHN

One may read the IC50 as the concentration needed to halve the response being measured. On to `COc1ccc(-n2ncc3c2CN(C#N)C3)cc1` [Example 1, 1-(4-Methoxyphenyl)-4,6-dihydropyrrolo[3,4-c]pyrazole-5(1H)-carbonitrile], for which the IC50 was 10 to 30 µM. With `N#CN1Cc2cnn(-c3ccccc3)c2C1` [Example 2, 1-Phenyl-4,6-dihydropyrrolo[3,4-c]pyrazole-5(1H)-carbonitrile], the IC50 is 10 to 30 µM.

`N#CN1Cc2cnn(-c3ccc(F)cc3)c2C1` [Example 3, 1-(4-Fluorophenyl)-4,6-dihydropyrrolo[3,4-c]pyrazole-5(1H)-carbonitrile]: the half-inhibitory concentration (IC50) is less than 10 µM. Then `N#CN1Cc2cnn(-c3ccccc3F)c2C1` [Example 4, 1-(2-Fluorophenyl)-4,6-dihydropyrrolo[3,4-c]pyrazole-5(1H)-carbonitrile], with 10 to 30 µM; and `N#CN1Cc2cnn(-c3ccc(C(N)=O)cc3)c2C1` [Example 5, 4-(5-Cyano-5,6-dihydropyrrolo[3,4-c]pyrazol-1(4H)-yl)benzamide], with 10 to 30 µM; and `N#CN1Cc2cnn(-c3cnc4ccccc4c3)c2C1` [Example 6, 1-(Quinolin-3-yl)-4,6-dihydropyrrolo[3,4-c]pyrazole-5(1H)-carbonitrile], with less than 10 µM. Then `COc1cccc(-n2ncc3c2CN(C#N)C3)c1` [Example 7, 1-(3-Methoxyphenyl)-4,6-dihydropyrrolo[3,4-c]pyrazole-5(1H)-carbonitrile], with 10 to 30 µM. The result for `N#CN1Cc2cnn(-c3cnn(-c4ccccc4)c3)c2C1` [Example 8, 1-(1-Phenyl-1H-pyrazol-4-yl)-4,6-dihydropyrrolo[3,4-c]pyrazole-5(1H)-carbonitrile] reads less than 10 µM; that for `N#CN1Cc2cnn(-c3cn(-c4ccccc4)cn3)c2C1` [Example 9, 1-(1-Phenyl-1H-imidazol-4-yl)-4,6-dihydropyrrolo[3,4-c]pyrazole-5(1H)-carbonitrile], 10 to 30 µM; that for `Cc1nn(-c2ccccc2)c2c1CN(C#N)C2` [Example 10, 3-Methyl-1-phenyl-4,6-dihydropyrrolo[3,4-c]pyrazole-5(1H)-carbonitrile], 10 to 30 µM. As for `N#CN1Cc2cnn(-c3cccc(C(=O)NCc4ccccc4)c3)c2C1` [Example 11, N-Benzyl-3-(5-cyano-5,6-dihydropyrrolo[3,4-c]pyrazol-1(4H)-yl)benzamide], the 50% inhibitory concentration (IC50) fell in the range of 10 to 30 µM. Then `CC(NC(=O)c1cccc(-n2ncc3c2CN(C#N)C3)c1)c1ccccc1` (centres unmarked) [Example 12, 3-(5-Cyano-5,6-dihydropyrrolo[3,4-c]pyrazol-1(4H)-yl)-N-(1-phenylethyl)benzamide], with 10 to 30 µM; and `N#CN1Cc2cnn(-c3cccc(C(=O)NCc4ccccn4)c3)c2C1` [Example 13, 3-(5-Cyano-5,6-dihydropyrrolo[3,4-c]pyrazol-1(4H)-yl)-N-(pyridin-2-ylmethyl)benzamide], with less than 10 µM.

For `N#CN1Cc2cnn(-c3ccc(C(=O)NCc4ccccn4)cc3)c2C1` [Example 14, 4-(5-Cyano-5,6-dihydro-pyrrolo[3,4-c]pyrazol-1(4H)-yl)-N-(pyridin-2-ylmethyl)benzamide], the 50% inhibitory concentration (IC50) was 10 to 30 µM. For `CNC(=O)c1ccc(-n2ncc3c2CN(C#N)C3)cc1` [Example 15, 4-(5-Cyano-5,6-dihydropyrrolo[3,4-c]pyrazol-1(4H)-yl)-N-methylbenzamide], the half-maximal inhibitory concentration (IC50) fell in the range of 10 to 30 µM. For `Cc1nn(-c2ccc(C(N)=O)cc2)c2c1CN(C#N)C2` [Example 16, 4-(5-Cyano-3-methyl-5,6-dihydropyrrolo[3,4-c]pyrazol-1(4H)-yl)benzamide], the concentration for half-maximal inhibition (IC50) was less than 10 µM. As to `Cn1ncc2cc(-n3ncc4c3CN(C#N)C4)ccc21` [Example 17, 1-(1-Methyl-1H-indazol-5-yl)-4,6-dihydropyrrolo[3,4-c]pyrazole-5(1H)-carbonitrile], the IC50 was less than 10 µM. For the compound `CNC(=O)c1cc(-n2ncc3c2CN(C#N)C3)ccc1OC` [Example 18, 5-(5-Cyano-5,6-dihydropyrrolo[3,4-c]pyrazol-1(4H)-yl)-2-methoxy-N-methylbenzamide], the IC50 fell in the range of 30 to 100 µM.

As for `N#CN1Cc2cnn(-c3n[nH]c4ccccc34)c2C1` [Example 19, 1-(1H-Indazol-3-yl)-4,6-dihydropyrrolo[3,4-c]pyrazole-5(1H)-carbonitrile], the IC50 is less than 10 µM. With `N#CN1Cc2cnn(-c3cc(-c4ccccc4)n[nH]3)c2C1` [Example 20, 1-(3-Phenyl-1H-pyrazol-5-yl)-4,6-dihydropyrrolo[3,4-c]pyrazole-5(1H)-carbonitrile], the half-maximal inhibitory concentration (IC50) lay in the range of 10 to 30 µM.

As for `Cn1nc(-c2ccccc2)c2c1CN(C#N)C2` [Example 21, 1-Methyl-3-phenyl-4,6-dihydropyrrolo[3,4-c]pyrazole-5(1H)-carbonitrile], the IC50 is less than 10 µM. With `Cn1nc2c(c1-c1ccccc1)CN(C#N)C2` [Example 22, 2-Methyl-3-phenyl-2,6-dihydropyrrolo[3,4-c]pyrazole-5(4H)-carbonitrile], the IC50 was less than 10 µM.

For `CC(C)n1nc(-c2ccccc2)c2c1CN(C#N)C2` [Example 23, 1-Isopropyl-3-phenyl-4,6-dihydropyrrolo[3,4-c]pyrazole-5(1H)-carbonitrile], the concentration for half-maximal inhibition (IC50) is less than 10 µM. Then `N#CN1Cc2c(-c3ccccc3)nn(Cc3ccccc3)c2C1` [Example 24, 1-Benzyl-3-phenyl-4,6-dihydropyrrolo[3,4-c]pyrazole-5(1H)-carbonitrile], with 10 to 30 µM; and `COc1ccc(C(C)C)cc1-c1nn(Cc2ccccc2)c2c1CN(C#N)C2` [Example 25, 1-Benzyl-3-(5-isopropyl-2-methoxyphenyl)-4,6-dihydropyrrolo[3,4-c]pyrazole-5(1H)-carbonitrile], with 10 to 30 µM; and `COc1ccc(C(C)C)cc1-c1n[nH]c2c1CN(C#N)C2` [Example 26, 3-(5-Isopropyl-2-methoxyphenyl)-4,6-dihydropyrrolo[3,4-c]pyrazole-5(1H)-carbonitrile], with less than 10 µM. For `Cc1ccc(F)c(-c2n[nH]c3c2CN(C#N)C3)c1` [Example 27, 3-(2-Fluoro-5-methylphenyl)-4,6-dihydropyrrolo[3,4-c]pyrazole-5(1H)-carbonitrile], the IC50 was less than 10 µM. Then `N#CN1Cc2cnn(-c3cc(C(N)=O)n[nH]3)c2C1` [Example 28, 5-(5-Cyano-5,6-dihydropyrrolo[3,4-c]pyrazol-1(4H)-yl)-1H-pyrazole-3-carboxamide], with 10 to 30 µM; and `N#CN1Cc2[nH]nc(-c3ccccc3)c2C1` [Example 29, 3-Phenyl-4,6-dihydropyrrolo[3,4-c]pyrazole-5(1H)-carbonitrile], with less than 10 µM; and `Cn1nc2c(c1Nc1cc3ccccc3cn1)CN(C#N)C2` [Example 30, 3-(Isoquinolin-3-ylamino)-2-methyl-2,6-dihydropyrrolo[3,4-c]pyrazole-5(4H)-carbonitrile], with less than 10 µM. Take `N#CN1Cc2[nH]nc(Nc3cc4ccccc4cn3)c2C1` [Example 31, 3-(Isoquinolin-3-ylamino)-4,6-dihydropyrrolo[3,4-c]pyrazole-5(1H)-carbonitrile]: the half-inhibitory concentration (IC50) was less than 10 µM. With `N#CN1Cc2c(Nc3cc4ccccc4cn3)nn(Cc3ccccc3)c2C1` [Example 32, 1-Benzyl-3-(isoquinolin-3-ylamino)-4,6-dihydropyrrolo[3,4-c]pyrazole-5(1H)-carbonitrile], the IC50 is less than 10 µM. With `N#CN1Cc2c(Nc3ccccn3)nn(-c3ccc(C(N)=O)cc3)c2C1` [Example 33, 4-(5-Cyano-3-(pyridin-2-ylamino)-5,6-dihydropyrrolo[3,4-c]pyrazol-1(4H)-yl)benzamide], the half-inhibitory concentration (IC50) fell in the range of 10 to 30 µM.

In the case of `N#CN1Cc2[nH]nc(CNC(=O)c3cc(-c4ccccc4)n[nH]3)c2C1` [Example 34, N-((5-Cyano-1,4,5,6-tetrahydropyrrolo[3,4-c]pyrazol-3-yl)methyl)-3-phenyl-1H-pyrazole-5-carboxamide], the concentration for half-maximal inhibition (IC50) is less than 10 µM. As for `Cc1ccc(C(=O)NCc2nn(-c3ccccc3)c3c2CN(C#N)C3)cc1` [Example 35, N-((5-Cyano-1-phenyl-1,4,5,6-tetrahydropyrrolo[3,4-c]pyrazol-3-yl)methyl)-4-methylbenzamide], the IC50 is less than 10 µM. The result for `CC(=O)NCc1nn(-c2ccccc2)c2c1CN(C#N)C2` [Example 36, N-((5-Cyano-1-phenyl-1,4,5,6-tetrahydropyrrolo[3,4-c]pyrazol-3-yl)methyl)acetamide] reads 10 to 30 µM; that for `N#CN1Cc2[nH]nc(-c3ccc(OCc4ccccc4)cc3)c2C1` [Example 37, 3-(4-(Benzyloxy)phenyl)-4,6-dihydropyrrolo[3,4-c]pyrazole-5(1H)-carbonitrile], less than 10 µM.

For `N#Cc1cccc(-c2n[nH]c3c2CN(C#N)C3)c1` [Example 38, 3-(3-Cyanophenyl)-4,6-dihydropyrrolo[3,4-c]pyrazole-5(1H)-carbonitrile], the half-maximal inhibitory concentration (IC50) was less than 10 µM.
